Patent US9493782B2, “Inducible promoter sequences for regulated expression and methods of use” (PIONEER HI-BRED INTERNATIONAL INC, priority 2012, dated 2016)

Legend:
[1] = system: 1.7 kb ZmCAS1 promoter driving MS45; assay: Western analysis of MS45 protein in ms45/ms45 maize plants transformed with PHP16973; format: in vivo; details: PHP16973 plants watered with 30 mg CBSU at meiosis stage, collected 2 days later
ZmCAS1 transcript [2] = assay: Northern blot of maize callus, leaf and anther RNA treated with CBSU, ZmCAS1 probe; details: CBSU-treated tissues; FIG. 3
[3] = system: 1.7 kb ZmCAS1 promoter driving GUS reporter; assay: GUS expression in leaf punches of maize plants transformed with PHP16975; format: in vivo; details: 3 PHP16975 plants, about 5 leaf stage, 2 days after watering with 30 mg 2-CBSU; FIG. 5
Description: Plants were also regenerated from callus events containing PHP16975 and grown in the greenhouse to approximately the 5 leaf stage. At this stage of development, leaf punches from plants regenerated from the 3 bialophos-resistant events shown in FIG. 5 were collected pre- (C) and post-watering (S) with 30 mg of 2-CBSU to examine GUS expression in leaf in response to application of the safener.

[4] = system: truncated 1.0 kb ZmCAS1 promoter driving GUS reporter; assay: GUS staining (X-Gluc) of rice callus events transformed with PHP16974; format: cell-based, Oryza sativa cv. Kitaake; details: four PHP16974 events, 100 mg/liter CBSU, 24 hours; FIG. 9
Text: To determine whether the ZmCAS1 promoter could conditionally regulate expression in response to safener treatment or heat treatment in plant species other than maize, Agrobacterium-mediated transformation was used to generate integrated copies of PHP16974 (ZmCAS1HindIII Pro:GUS) comprising the truncated 1.0 kb ZmCAS1 promoter for studies in rice. Scutellum from 10-14 day old germinating seeds (Oryza sativa cv. Kitaake) was used for rice transformation experiment (Toki. 1997, PI Mol. Biol Reporter 15:16-21). Bialophos-resistant callus events containing PHP16974 were selected and screened for their ability to respond to safener application. Four independent bialophos-resistant events were grown on maintenance media or maintenance media containing 100 mg/liter CBSU for 24 hours, removed and stained with X-Gluc. […] PHP16974 bialophos-resistant events were regenerated into plants. Leaf tissue was collected from these plants and used for DNA hybridization analyses to identify single-copy PHP16974 insertions. These plants were allowed to set selfed seed and were used for subsequent studies to monitor GUS expression under the transcriptional control of the ZmCAS1 promoter. Sixteen seed were selected from 2 single-copy PHP16974 events were sterilized, grown on hormone-free media at 28° C. or 37° C. for 48 hours and allowed to germinate. […]

ZmCAS1 transcript [5] = assay: Northern blot of maize anther RNA from CBSU-treated plants, ZmCAS1 probe; format: in vivo; details: FIG. 2
Description: (§1) Wild type maize plants were grown to the meiosis stage of microspore development. Plants were watered with 30 mg 2-CBSU and allowed to develop to the quartet and early vacuolate stage of microspore development. PolyA+ anther RNA was isolated from wild type control and CBSU treated plants and stored. A cDNA library was constructed from mRNAs isolated from CBSU-treated plants, arrayed onto nylon filters and stored. A cDNA subtraction library was generated using the Clontech PCR-Select cDNA Subtraction Kit (#K1804-1) following the manufacturer's instructions to enrich for CBSU-specific transcripts. Using this approach anther PolyA+ mRNA from wild-type plants was used to enrich for transcripts found in the anther PolyA+ mRNA from CBSU treated plants. […]
(§2) To determine whether the ZmCAS1 cDNA was 1) induced in maize anthers by CBSU-treatment and 2) reduced or absent in tapetum and microspore-ablated maize anthers from CBSU-treated 5126:DAM plants, a 477 bp ZmCAS1c-1 DNA fragment (SEQ ID NO:1), as well as DNA fragments from ZmMS45, Zm5126, ZmActin, and ZmUbiquitin (Cigan et al. 2001. […] MS45 and 5126 transcripts were easily detected in anther RNAs from male-fertile plants but absent in anther RNAs from male-sterile plants (FIG. 2) further supporting the observation that these RNAs are localized to the maize tapetum (Cigan et al. 2001. Sex. Plant Reprod. 14, 135-142).

[6] = system: truncated 1.0 kb ZmCAS1 promoter driving GUS reporter; assay: GUS staining (X-Gluc) of maize callus events transformed with PHP16974; format: cell-based; details: seven PHP16974 callus events, 100 mg/liter CBSU, room temperature; FIG. 4B
IN2-2 transcript = assay: Northern blot of maize anther RNA from CBSU-treated plants, IN2-2 probe; format: in vivo; details: CBSU-treated male-fertile and male-sterile plants; not detectable in untreated controls; FIG. 2
Description: as §1, §2

[7] = system: 1.0 kb ZmCAS1 promoter driving MS45; assay: Northern analysis of MS45 mRNA in ms45/ms45 maize callus transformed with PHP16972; format: cell-based; details: five PHP16972 ms45/ms45 callus events, 100 mg/liter CBSU, room temperature, 18 hours; FIG. 6
Text: T-DNA vectors PHP16972 (SEQ ID NO:13, ZmCAS1HindIII Pro: MS45/35S:PAT) and PHP16973 (SEQ ID NO: 14, ZmCAS1 BamPro:MS45/35S:PAT) were used to transform maize callus which was generated to contain a segregating population of MS45/ms45 heterozygous and ms45/ms45 homozygous mutant plants. In order to detect MS45 RNA or protein expression under the control of the 1.0 or 1.7 kb ZmCAS promoter in maize anthers, plants containing a naturally occurring mutation in the maize MS45 gene which results in loss of MS45 RNA and protein were used for these studies. Pollen from MS45/ms45 plants were used to fertilize male-sterile ms45/ms45 plants for the purpose of generating embryos which would be ms45/ms45 as described in Cigan et al 2001. […] Five random bialophos-resistant callus events containing integrated copies of PHP16972 were placed onto maintenance media (FIG. 5, (−)) and maintenance media containing 100 mg/liter safener CBSU-2 (FIG. 5 (+)) at room temperature for 18 hours, removed and PolyA+ RNA prepared and used for RNA analysis as described (Cigan et al. 2001. Sex. Plant Reprod. 14, 135-142) using the ZmMS45 and ZmActin probes for hybridization analysis. […] A very low signal was observed when callus was grown in the absence of CBSU. Actin was used as a control probe to show nearly equivalent RNA levels were present in all samples. […]

[8] = system: 1.7 kb ZmCAS1 promoter driving GUS reporter; assay: GUS staining (X-Gluc) of maize callus events transformed with PHP16975; format: cell-based; details: room temperature, 18 hours, FIG. 4A
Text: Agrobacterium-mediated transformation of immature embryos was used to generate integrated copies of PHP16974 (SEQ ID NO:11; ZmCAS1HindIII Pro:GUS/35SPAT) comprising the 1.0 kb ZmCAS1 promoter (SEQ ID NO:9), PHP16975 (SEQ ID NO:12, ZmCAS1BamPro:GUS/35SPAT) comprising the 1.7 kb ZmCAS1 promoter (SEQ ID NO:10) and PHP16972 (SEQ ID NO:13, ZmCAS1HindIII Pro:MS45/35SPAT) comprising the 1.0 kb ZmCAS1 promoter or PHP16973 (SEQ ID NO:14, ZmCAS1BamPro:MS45/35SPAT:) comprising the 1.7 kb ZmCAS1 promoter.
To determine whether the 1.7 kb or the 1.0 kb ZmCAS1 promoter from maize could direct induced expression of the GUS reporter, three bialophos-resistant callus events were placed onto maintenance media and maintenance media containing increasing amounts of the safener CBSU-2 for at room temperature for 18 hours, removed and stained with X-Gluc to detect GUS activity.

SMILES: NC(=O)NS(=O)(=O)c1ccccc1Cl [CBSU, N-(aminocarbonyl)-2-chlorobenzenesulfonamide]
- MS45 protein in leaf extracts ([1]; FIG. 7): increased steady-state levels of the MS45 protein
- MS45 protein in anther extracts ([1]; FIG. 8): Increased MS45 protein
- ZmCAS1 hybridization in mRNAs from callus, leaf and anther (ZmCAS1 transcript [2]): strong hybridization
- GUS expression in leaf punches [3]: strong GUS expression
- GUS expression in rice callus [4]: strong GUS expression
- ZmCAS1 hybridization signal in anther mRNA (ZmCAS1 transcript [5]; male-fertile plants watered with 30 mg 2-CBSU (+, F)): strong hybridization signals
- ZmCAS1 hybridization signal in anther mRNA (ZmCAS1 transcript [5]; male-sterile 5126:DAM plants, CBSU-treated (+, S)): reduced ZmCAS1 signal
- GUS expression in callus [6]: inducible GUS expression
- IN2-2 hybridization signal in anther mRNA (IN2-2 transcript): strong hybridization signals
- MS45 mRNA hybridization signal in callus [7]: strong induction
- GUS expression in callus ([8]; 10 mg/l CBSU): low levels of GUS expression
- GUS expression in callus ([8]; 100 mg/l CBSU): strong GUS expression
